Results published in EP1068226B1, “LIPOPEPTIDES INDUCING T LYMPHOCYTIC CYTOTOXICITY BEARING AT LEAST ONE AUXILIARY T EPITOPE, AND USES FOR VACCINATION” (INSTITUT NATIONAL DE LA SANTE ET DE LA RECHERCHE MEDICALE …, priority 1998, dated 1999).
Residues, ends and D or L forms follow the SMILES beside them. *: point of attachment. Palmitoyl = CCCCCCCCCCCCCCCC(=O)*

Tests used:
[1] = test system: CTL spécifiques dans les PBMC de patients séropositifs pour HIV; test: ELISPOT IFN-γ test on human PBMC of HIV-seropositive donors (antigenicity); format: cell-based, homme; settings: PBMC of patient HLA-B7 Z118; figure 6c
Description: Des donneurs séropositifs pour HIV ont été sélectionnés pour leur expression en molecules HLA de classe I selon des données bien connues de l'homme du métier en matière de restriction vis-à-vis des peptides et lipopeptides.
Des microplaques de nitrocellulose (Millipore, Bedford, MA) ont été incubées pendant la nuit à 4°C avec 1 µg/ml d'un anticorps de capture anti-Interféron-γ humain dilué dans un tampon carbonate/bicarbonate à pH 9,6 (100 µl/puits). Après cinq lavages, les plaques ont été saturées pendant 2 heures à 37°C avec 200 µl puis lavées. Pour les cultures de cellules humaines, le milieu complet était composé de RPMI 1640, 10% de sérum albumine bovine, 2mM glutamine, d'antibiotiques et de β2-mercaptoéthanol (5 x 10^-5M). Pour le test avec le peptide, des PBMC de patients ont été ajoutés directement dans les microplaques de nitrocellulose (2 x 10^5 cellules/puits) et incubés pendant 24 heures à 37°C en présence de […] du peptide. Pour le test des lipopeptides, les PBMC ont été incubés pendant la nuit à 37 °C avec les lipopeptides, puis ont été lavés et irradiés (3000 rads). Ces cellules ont été utilisées comme cellules stimulatrices dans une co-culture (2 x 10^5 cellules par puits) avec des PBMC syngéniques ( rapport 1/1) dans des plaques de nitrocellulose pendant 24 heures à 37°C. […]

[2] = Solubility and filterability of the lipopeptides; format: physicochemical
Description: Le lipopeptide n° 3 est soluble dans l'acide acétique à 80%. Il peut être stérilisable par filtration sur un microfiltre de 0,22 µm. Il peut être en outre dissous dans une solution DMSO/eau 10% V/V. La mesure de la masse par spectrométrie PDMS-TOF confirme la présence du produit attendu. Le produit s'avère purifiable après injection d'une solution concentrée dans le DMSO, sur colonne Vydac C4, à 60°C, en utilisant un gradient d'acétonitrile, en présence du contre-ion TFA. Le produit est caractérisable par HPLC selon plusieurs méthodes résolutives conventionnelles, sur colonnes Vydac C4, Zorbax C3, Zorbax CN, Zorbax C1, à 60°C, à l'aide de gradients d'acétonitrile en présence d'un contre-ion TFA, ou en utilisant un modificateur organique, tel que l'isopropanol ou le butanol en isocratique.
Le trifluoroacétate du lipopeptide n°3 est soluble dans le DMSO (20-25 mg/mL), et reste soluble après dilution par de l'eau (DMSO 10%). L'échange du contre-ion trifluoroacétate pour un contre-ion acétate peut être réalisé par RP-HPLC sur une colonne C4: le produit dissous dans le DMSO à 80% est injecté sur la colonne équilibrée par le solvant A (acide acétique à 5% dans l'eau). Après élimination des produits non retenus (contre-ions TFA, sels), le produit est élué par l'aide d'un gradient du solvant A vers le solvant B (acétonitrile 80% - acide acétique à 5% - eau 15%). […]

NEF 68-76: épitope potentiel de HLA-B7 (FPVTPQVPL; UniProt P04601 68-76, looked up, fragment)
antigénicité (ELISPOT Interféron-γ) [1]: induit efficacement une réponse CTL spécifique

CCCCCCCCCCCCCCCC(=O)NCCCC[C@H](N)C(=O)N[C@@H](CO)C(=O)N[C@@H](CO)C(=O)N[C@@H](CCC(N)=O)C(=O)N[C@@H](Cc1ccc(O)cc1)C(=O)N[C@H](C(=O)N[C@@H](CCCCN)C(=O)N[C@@H](C)C(=O)N[C@@H](CC(N)=O)C(=O)N[C@@H](CO)C(=O)N[C@@H](CCCCN)C(=O)N[C@@H](Cc1ccccc1)C(=O)N[C@H](C(=O)NCC(=O)N[C@H](C(=O)N[C@H](C(=O)N[C@@H](CCC(=O)O)C(=O)N[C@@H](CCCNC(=N)N)C(=O)NCC(=O)N[C@@H](CCCNC(=N)N)C(=O)N[C@@H](C)C(=O)N[C@@H](C)C(=O)NCC(=O)N[C@H](C(=O)NCC(=O)N[C@H](C(=O)N[C@@H](CC(C)C)C(=O)N[C@H](C(=O)N[C@H](C(=O)O)C(C)C)[C@@H](C)O)[C@@H](C)CC)[C@@H](C)CC)[C@@H](C)O)[C@@H](C)CC)[C@@H](C)CC)[C@@H](C)CC [lipopeptide n°4] (H-K(Palmitoyl)SSQYIKANSKFIGITERGRAAGIGILTV-OH)
solubilité en milieu aqueux ([2]; aqueous medium): n'est soluble en milieu aqueux qu'en présence de DMSO

CCCCCCCCCCCCCCCC(=O)NCCCC[C@H](NC(=O)CCCCCCCCCCCCCCC)C(=O)N[C@@H](CO)C(=O)N[C@@H](CO)C(=O)N[C@@H](CCC(N)=O)C(=O)N[C@@H](Cc1ccc(O)cc1)C(=O)N[C@H](C(=O)N[C@@H](CCCCN)C(=O)N[C@@H](C)C(=O)N[C@@H](CC(N)=O)C(=O)N[C@@H](CO)C(=O)N[C@@H](CCCCN)C(=O)N[C@@H](Cc1ccccc1)C(=O)N[C@H](C(=O)NCC(=O)N[C@H](C(=O)N[C@H](C(=O)N[C@@H](CCC(=O)O)C(=O)N[C@@H](C)C(=O)N[C@@H](C)C(=O)N[C@@H](C)C(=O)N[C@@H](C)C(=O)N[C@@H](C)C(=O)NCC(=O)N[C@H](C(=O)NCC(=O)N[C@H](C(=O)N[C@@H](CC(C)C)C(=O)N[C@H](C(=O)N[C@H](C(=O)O)C(C)C)[C@@H](C)O)[C@@H](C)CC)[C@@H](C)CC)[C@@H](C)O)[C@@H](C)CC)[C@@H](C)CC)[C@@H](C)CC [lipopeptide n° 1] (Palmitoyl-K(Palmitoyl)SSQYIKANSKFIGITEAAAAAGIGILTV-OH)
solubilité dans un mélange DMSO/eau 10% V/V [2]: pratiquement insoluble
solubilité dans l'eau ([2]; water): pratiquement insoluble
solubilité dans l'eau après lyophilisation ([2]; water, after lyophilisation): totalement insoluble

CCCCCCCCCCCCCCCC(=O)NCCCC[C@H](NC(=O)CCCCCCCCCCCCCCC)C(=O)NCC(=O)N[C@@H](CCCNC(=N)N)C(=O)N[C@@H](CCC(N)=O)C(=O)N[C@@H](Cc1ccc(O)cc1)C(=O)N[C@H](C(=O)N[C@@H](CCCCN)C(=O)N[C@@H](C)C(=O)N[C@@H](CC(N)=O)C(=O)N[C@@H](CO)C(=O)N[C@@H](CCCCN)C(=O)N[C@@H](Cc1ccccc1)C(=O)N[C@H](C(=O)NCC(=O)N[C@H](C(=O)N[C@H](C(=O)N[C@@H](CCC(=O)O)C(=O)N[C@@H](CCCNC(=N)N)C(=O)NCC(=O)N[C@@H](CCCNC(=N)N)C(=O)N[C@@H](C)C(=O)N[C@@H](C)C(=O)NCC(=O)N[C@H](C(=O)NCC(=O)N[C@H](C(=O)N[C@@H](CC(C)C)C(=O)N[C@H](C(=O)N[C@H](C(=O)O)C(C)C)[C@@H](C)O)[C@@H](C)CC)[C@@H](C)CC)[C@@H](C)O)[C@@H](C)CC)[C@@H](C)CC)[C@@H](C)CC [lipopeptide n° 3] (Palmitoyl-K(Palmitoyl)GRQYIKANSKFIGITERGRAAGIGILTV-OH)
solubilité dans un mélange DMSO/eau 10% V/V [2]: dissous
solubilité dans l'acide acétique à 80% ([2]; acide acétique à 80%): soluble
solubilité ([2]; acétate salt, compared with the trifluoroacétate): comparable à celle du trifluoroacétate
stérilisation par filtration ([2]; microfiltre de 0,22 µm): stérilisable
solubilité dans le DMSO ([2]; trifluoroacétate salt, DMSO): 20 to 25 mg/mL
solubilité après dilution par de l'eau ([2]; trifluoroacétate salt, DMSO solution diluted with water (DMSO 10%)): reste soluble

CCCCCCCCCCCCCCCC(=O)NCCCC[C@H](NC(=O)CCCCCCCCCCCCCCC)C(=O)N[C@@H](CO)C(=O)N[C@@H](CO)C(=O)N[C@@H](CCC(N)=O)C(=O)N[C@@H](Cc1ccc(O)cc1)C(=O)N[C@H](C(=O)N[C@@H](CCCCN)C(=O)N[C@@H](C)C(=O)N[C@@H](CC(N)=O)C(=O)N[C@@H](CO)C(=O)N[C@@H](CCCCN)C(=O)N[C@@H](Cc1ccccc1)C(=O)N[C@H](C(=O)NCC(=O)N[C@H](C(=O)N[C@H](C(=O)N[C@@H](CCC(=O)O)C(=O)N[C@@H](CCCNC(=N)N)C(=O)NCC(=O)N[C@@H](CCCNC(=N)N)C(=O)N[C@@H](C)C(=O)N[C@@H](C)C(=O)NCC(=O)N[C@H](C(=O)NCC(=O)N[C@H](C(=O)N[C@@H](CC(C)C)C(=O)N[C@H](C(=O)N[C@H](C(=O)O)C(C)C)[C@@H](C)O)[C@@H](C)CC)[C@@H](C)CC)[C@@H](C)O)[C@@H](C)CC)[C@@H](C)CC)[C@@H](C)CC [lipopeptide n°2] (Palmitoyl-K(Palmitoyl)SSQYIKANSKFIGITERGRAAGIGILTV-OH)
solubilité dans l'eau ([2]; water): comportement voisin du lipopeptide n°1
